Columns and labels:
[1] = target: T1, Serine/threonine-protein kinase mTOR (Homo sapiens, UniProt P42345); test: Inhibition of mTOR
[2] = target: T2, Phosphatidylinositol 4,5-bisphosphate 3-kinase catalytic subunit alpha isoform (Homo sapiens, UniProt P42336); test: Inhibition of PI3Kalpha at 100 nM
[3] = target: T1, Serine/threonine-protein kinase mTOR; test: Inhibition of mTOR-mediated AKT phosphorylation at Ser473 by cell based assay
[4] = target: T2, Phosphatidylinositol 4,5-bisphosphate 3-kinase catalytic subunit alpha isoform; test: Inhibition of PI3Kalpha
[5] = Clearance in human liver microsomes assessed per mg of protein; assay type: ADME, Microsome; settings: read-out: CLH
[6] = Clearance in human hepatocytes assessed per million cells; assay type: ADME, cell-based, Hepatocyte; settings: read-out: CLH
Homo sapiens = species: Homo sapiens; test: Selectivity ratio of Ki for PI3Kalpha to Ki for mTOR
[7] = target: T1, Serine/threonine-protein kinase mTOR; test: Inhibition of mTOR-mediated ribosomal protein S6 kinase phosphorylation by cell based assay
[8] = Clearance in rat; assay type: ADME, organism-based; settings: in vivo
[9] = Half life in rat; assay type: ADME, organism-based; settings: in vivo
[10] = Oral bioavailability in rat; assay type: ADME, organism-based; settings: in vivo
[11] = Drug excretion in rat; assay type: ADME, organism-based; settings: in vivo, read-out: Drug excretion
CYP3A4 = CYP3A4 (Homo sapiens, UniProt P08684); test: Inhibition of CYP3A4 at 3 uM; assay type: ADME
CYP1A2 = target: T3, CYP1A2 (Homo sapiens, UniProt P05177); test: Inhibition of CYP1A2 at 3 uM; assay type: ADME
T3 sequence (P05177 whole entry): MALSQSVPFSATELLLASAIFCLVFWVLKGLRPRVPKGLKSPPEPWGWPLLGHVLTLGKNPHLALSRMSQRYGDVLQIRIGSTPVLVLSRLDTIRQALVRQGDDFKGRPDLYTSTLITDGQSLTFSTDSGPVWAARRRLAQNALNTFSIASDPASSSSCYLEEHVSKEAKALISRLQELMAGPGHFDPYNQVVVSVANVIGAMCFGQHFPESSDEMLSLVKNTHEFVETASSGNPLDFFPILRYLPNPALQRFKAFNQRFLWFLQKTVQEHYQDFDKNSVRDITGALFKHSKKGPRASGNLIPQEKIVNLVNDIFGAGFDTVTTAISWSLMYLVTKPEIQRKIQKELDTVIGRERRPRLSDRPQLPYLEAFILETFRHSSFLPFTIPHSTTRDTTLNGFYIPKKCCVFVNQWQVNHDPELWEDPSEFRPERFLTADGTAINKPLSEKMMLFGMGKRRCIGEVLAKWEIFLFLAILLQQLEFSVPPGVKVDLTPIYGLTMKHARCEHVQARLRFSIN

CYP2C9 = CYP2C9 (Homo sapiens, UniProt P11712); test: Inhibition of CYP2C9 at 3 uM; assay type: ADME
CYP2D6 = CYP2D6 (Homo sapiens, UniProt P10635); test: Inhibition of CYP2D6 at 3 uM; assay type: ADME
Salmonella typhimurium = test: Genotoxicity in Salmonella typhimurium; assay type: toxicity, organism-based; settings: salmonella enterica subsp. enterica serovar typhimurium

T2 sequence (P42336 whole entry, canonical isoform): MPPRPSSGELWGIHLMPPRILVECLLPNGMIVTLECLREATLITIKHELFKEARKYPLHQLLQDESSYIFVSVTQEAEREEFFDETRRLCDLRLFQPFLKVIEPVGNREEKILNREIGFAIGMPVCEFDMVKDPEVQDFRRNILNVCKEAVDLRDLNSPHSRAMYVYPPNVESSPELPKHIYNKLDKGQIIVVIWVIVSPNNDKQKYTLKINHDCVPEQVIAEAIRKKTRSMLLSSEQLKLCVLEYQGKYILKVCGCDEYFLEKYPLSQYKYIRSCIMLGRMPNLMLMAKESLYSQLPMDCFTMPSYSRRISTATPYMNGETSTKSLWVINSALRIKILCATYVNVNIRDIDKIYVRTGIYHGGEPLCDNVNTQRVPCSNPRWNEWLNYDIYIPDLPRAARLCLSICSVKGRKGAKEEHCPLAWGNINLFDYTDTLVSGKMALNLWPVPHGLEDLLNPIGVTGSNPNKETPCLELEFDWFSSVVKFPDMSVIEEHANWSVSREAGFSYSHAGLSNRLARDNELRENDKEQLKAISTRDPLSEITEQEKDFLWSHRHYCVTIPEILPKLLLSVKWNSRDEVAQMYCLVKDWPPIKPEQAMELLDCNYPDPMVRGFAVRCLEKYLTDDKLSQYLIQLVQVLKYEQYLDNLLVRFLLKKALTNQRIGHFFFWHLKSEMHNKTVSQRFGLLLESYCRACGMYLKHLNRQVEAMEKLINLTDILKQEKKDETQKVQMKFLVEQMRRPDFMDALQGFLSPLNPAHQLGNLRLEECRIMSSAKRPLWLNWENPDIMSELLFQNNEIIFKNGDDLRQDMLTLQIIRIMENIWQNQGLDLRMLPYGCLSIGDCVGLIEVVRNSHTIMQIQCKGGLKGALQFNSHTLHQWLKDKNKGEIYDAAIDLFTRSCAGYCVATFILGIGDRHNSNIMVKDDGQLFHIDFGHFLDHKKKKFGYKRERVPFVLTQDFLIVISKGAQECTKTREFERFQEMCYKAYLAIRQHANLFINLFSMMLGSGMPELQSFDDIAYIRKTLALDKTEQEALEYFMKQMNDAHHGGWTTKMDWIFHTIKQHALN
Sequence of CYP2C9 (P11712 whole entry): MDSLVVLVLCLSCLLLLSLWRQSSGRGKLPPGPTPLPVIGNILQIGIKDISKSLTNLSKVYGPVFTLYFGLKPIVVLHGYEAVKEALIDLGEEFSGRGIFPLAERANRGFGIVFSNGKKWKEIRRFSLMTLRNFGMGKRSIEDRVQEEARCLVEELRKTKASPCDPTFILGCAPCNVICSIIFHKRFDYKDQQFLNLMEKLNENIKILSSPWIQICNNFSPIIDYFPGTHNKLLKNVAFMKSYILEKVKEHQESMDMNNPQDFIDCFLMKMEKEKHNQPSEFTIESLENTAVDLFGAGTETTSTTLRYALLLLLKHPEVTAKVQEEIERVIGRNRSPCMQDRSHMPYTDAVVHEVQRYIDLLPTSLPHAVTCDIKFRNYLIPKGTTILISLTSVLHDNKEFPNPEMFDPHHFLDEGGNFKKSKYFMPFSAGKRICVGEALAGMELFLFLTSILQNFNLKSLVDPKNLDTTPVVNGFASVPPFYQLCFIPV
Sequence of CYP2D6 (P10635 whole entry): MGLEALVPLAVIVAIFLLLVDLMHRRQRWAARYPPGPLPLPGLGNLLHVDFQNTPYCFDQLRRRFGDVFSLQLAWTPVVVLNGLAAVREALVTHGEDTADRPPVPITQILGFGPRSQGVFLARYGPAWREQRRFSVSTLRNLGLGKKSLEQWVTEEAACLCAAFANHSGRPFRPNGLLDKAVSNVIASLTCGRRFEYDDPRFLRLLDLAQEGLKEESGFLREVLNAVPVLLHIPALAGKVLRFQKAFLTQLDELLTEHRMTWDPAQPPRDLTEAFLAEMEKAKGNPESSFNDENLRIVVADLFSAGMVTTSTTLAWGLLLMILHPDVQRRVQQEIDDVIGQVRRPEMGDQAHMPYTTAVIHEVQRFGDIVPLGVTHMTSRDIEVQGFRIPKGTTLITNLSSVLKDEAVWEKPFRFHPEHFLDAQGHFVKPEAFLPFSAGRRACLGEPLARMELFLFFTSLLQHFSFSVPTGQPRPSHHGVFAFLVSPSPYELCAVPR
Sequence of CYP3A4 (P08684 whole entry): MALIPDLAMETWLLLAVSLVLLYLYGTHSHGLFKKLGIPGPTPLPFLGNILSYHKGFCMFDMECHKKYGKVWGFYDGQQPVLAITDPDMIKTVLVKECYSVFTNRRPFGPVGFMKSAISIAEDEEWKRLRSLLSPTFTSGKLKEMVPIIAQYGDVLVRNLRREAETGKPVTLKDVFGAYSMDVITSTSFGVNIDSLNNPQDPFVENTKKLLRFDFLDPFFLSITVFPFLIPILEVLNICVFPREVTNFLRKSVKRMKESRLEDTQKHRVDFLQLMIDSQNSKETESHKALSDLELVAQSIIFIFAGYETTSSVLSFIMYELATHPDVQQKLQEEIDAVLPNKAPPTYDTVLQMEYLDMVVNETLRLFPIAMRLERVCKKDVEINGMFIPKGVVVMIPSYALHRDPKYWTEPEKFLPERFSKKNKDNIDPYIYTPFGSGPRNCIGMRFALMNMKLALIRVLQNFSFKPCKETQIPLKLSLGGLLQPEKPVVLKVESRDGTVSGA

Ki [1] | inhibition [2] | IC50 [3] | Ki [4] | microsomal CLint [5] | hepatocyte CLint [6] | SMILES | also measured
62 nM | 3% | 1290 nM | – | – | – | CCNC(=O)Nc1ccc(-c2nc3c(c(N4C[C@@H]5C[C@H]4CO5)n2)CS(=O)(=O)C3)cc1 | –
25 nM | – | – | 514 nM | < 8 µL/min/mg | < 2 µL/min/1e6 cells | CCNC(=O)Nc1ccc(-c2nc3c(c(N4CCOCC4)n2)CS(=O)(=O)C3)cc1 | Ratio Ki (Homo sapiens): 20
50 nM | – | – | > 4550 nM | 58 µL/min/mg | 28 µL/min/1e6 cells | CCNC(=O)Nc1ccc(-c2nc3c(c(N4CCOC[C@@H]4C)n2)S(=O)(=O)CCC3)cc1 | –
8 nM | – | 48 nM | > 4550 nM | 8.7 µL/min/mg | < 2 µL/min/1e6 cells | CCNC(=O)Nc1ccc(-c2nc3c(c(N4CCOC[C@@H]4C)n2)CS(=O)(=O)CC3)cc1 | Ratio Ki (Homo sapiens): > 500; IC50 [7]: 6 nM; clearance [8]: 66.2 mL/min/kg; half-life [9]: 1.05 h; bioavailability [10]: 30%; dose excreted [11]: 5.5%; inhibition at 3 µM (CYP3A4): ≤ 25%; inhibition at 3 µM (CYP1A2): ≤ 25%; inhibition at 3 µM (CYP2C9): ≤ 25%; inhibition at 3 µM (CYP2D6): ≤ 25%; Activity (Salmonella typhimurium): Non-toxic
120 nM | 7% | – | – | 25 µL/min/mg | 11 µL/min/1e6 cells | CCNC(=O)Nc1ccc(-c2nc3c(c(N4CCOC[C@H]4C)n2)S(=O)(=O)CC3)cc1 | –
52 nM | – | – | > 4550 nM | – | – | CCNC(=O)Nc1ccc(-c2nc3c(c(N4CCOC[C@H]4C)n2)CS(=O)(=O)CC3)cc1 | –
50 nM | – | – | > 4550 nM | < 8 µL/min/mg | < 2 µL/min/1e6 cells | CCNC(=O)Nc1ccc(-c2nc3c(c(N4CCOCC4)n2)CS(=O)(=O)CC3)cc1 | –
7 nM | 18% | 84 nM | – | – | – | CCNC(=O)Nc1ccc(-c2nc3c(c(N4C[C@H]5CC[C@@H](C4)O5)n2)CS(=O)(=O)C3)cc1 | –
5 nM | – | 55 nM | 3000 nM | – | – | CCNC(=O)Nc1ccc(-c2nc3c(c(N4C[C@H]5CC[C@@H](C4)O5)n2)CS(=O)(=O)CC3)cc1 | –

— ChEMBL document CHEMBL2062409, “Conformationally-restricted cyclic sulfones as potent and selective mTOR kinase inhibitors” (Bioorg Med Chem Lett, 2012)
